This is an account of results in patent US6384044B1, “Method of treating cancer of the prostate” (priority 1999, dated 2002).

The experiment relates to cancer of the prostate. The experiment is described as follows: Case reports: treatment of patients with cancer of the prostate (PSA level, bone scans, X-rays, rectal examination). Format: in vivo, human. The method, then:
Instead, a course of radiation of the involved ribs and lumbar-sacral vertebrae was carried out to reduce pain, following which the patient was referred for further treatment.
They were treated with flutamide plus leuprolide for eight weeks followed by implantation of a radioactive needle into the tumor mass. […] At this point, drug therapy was terminated and local radiation was applied to the lumbar spine to reduce pain. […] Two acquaintances in their sixties had been routinely monitoring their PSA levels every six to twelve months because of their age. […] Both were started immediately on low-dose naltrexone 3 mg/day q.h.s while they considered the desirability of undergoing standard therapies for prostate cancer. This exploration took a period of three months for one and four months for the other with both eventually electing to undergo treatment with flutamide, a testosterone blocking agent.

As to `O=C1CC[C@@]2(O)[C@H]3Cc4ccc(O)c5c4[C@@]2(CCN3CC2CC2)[C@H]1O5` [naltrexone, Naltrexone], the “Symptom-free follow-up with normal bone scans and very low PSA readings” value (Example 1: continued naltrexone treatment) is given as 18 months. Further, the “Tumor on bone scans” value (Example 1: naltrexone 3 mg/day q.h.s., after four months) is “disappeared”. Moreover, the PSA level entry (Example 1: person, bone metastases, after failed drug therapy and radiation, naltrexone 3 mg/day q.h.s., after four months) is “less than 1.0”. Besides, the “X-rays of the spine” value (Example 2: naltrexone 3 mg day q.h.s., over five months) is listed as “became normal”. For the same compound, the PSA reading result (Example 2: person, lumbar vertebrae lesions, after failed drug therapy and local radiation, naltrexone 3 mg day q.h.s., over five months) is listed as “zero”. Also, the Tumor shrinkage result (Examples 3 and 4: two men, untreated adenocarcinoma of the prostate, naltrexone 3 mg/day q.h.s. alone for three / four months) was “substantial shrinkage, by more than one-half”.
